Patent US10233209B2, “Inhibitors of the farnesoid x receptor and uses in medicine” (The United States of America, as represented by the …, priority 2013, dated 2019)
Entries after “also recorded” stand apart in the source; their conditions may differ.

Tests used:
[1] = Gly-MCA incubation with fecal extract (hydrolysis by gut bacteria); assay type: in vitro ADME, mouse; conditions: 50 μM Gly-MCA; 0.1 mg/mL fecal extract; TβMCA positive control
Experimental: Fecal proteins were prepared from the fecal sample (0.5 g) in pH 7.4 PBS (5.0 ml) using sonication. Incubation was carried out in 3 mM sodium acetate buffer, pH 5.2, containing 0.1 mg/ml fecal protein and 50 μM Gly-MCA or T-β-MCA in a final volume of […]. After a 20-min incubation at 37° C., the samples were plunged into dry ice to stop the reaction. 100 of μL methanol was directly added to the […] reaction mixture. After centrifuging at 14,000 g for 20 min, […] of the supernatant was transferred to an autosampler vial subjected to analysis by a UPLC system coupled with a XEVO triple quadrupole tandem mass spectrometer (Waters Corp., Milford, Mass.).
Fecal extracts were prepared as described above. Gly-MCA (50 μM) was incubated with fecal extract (0.1 mg/mL). The negative control was fecal extract alone. The positive control was fecal extract (0.1 mg/mL) and TβMCA acid (50 μM).

[2] = Gly-MCA in mouse ileum after oral gavage; assay type: in vivo; conditions: oral gavage 0, 1, 5, 50 mg/kg in corn oil
Experimental: Gly-MCA was given to mice via oral gavage at dosages of 0, 1, 5, and 50 mg/kg of Gly-MCA, with the Gly-MCA dosed in corn oil. Gly-MCA was detected using ultra performance liquid chromatography-electrospray ionization-quadrupole time-of-flight mass spectrometry (UPLC-ESI-QTOFMS).

[3] = liver toxicity 24 h after Gly-MCA dosing (ALT, AST); assay type: in vivo, mouse; conditions: 1, 5, 50 mg/kg; after 24 h; vs vehicle
Experimental: Mice were dosed with vehicle or Gly-MCA at 1 mg/kg, 5 mg/kg, and 50 mg/kg. After 24 h, […] (ALT) and […] (AST) levels were determined and the results shown in FIG. 37.

[4] = system: HFD-treated C57BL/6N mice; assay: Gly-MCA in mice fed a high-fat diet (prevention of obesity, insulin resistance, NAFLD); assay type: in vivo, mouse
From the text: (§1) High-fat diet (HFD) (60% kcal consisting of fat) was purchased from Bioserv. […] Fxr^fl/fl and Fxr^ΔIE (Kim et al., J. Lipid Res. 48:2664-2672, 2007) mice were backcrossed with C57BL/6N mice for over 10 generations. For the antibiotic (the combination of bacitracin, neomycin, and streptomycin) study, male C57BL/6N mice from 6 weeks of age were fed a high-fat diet (“HFD) and administered 0.1% (w/v) of each compound (the combination of bacitracin, neomycin, and streptomycin) in the drinking water. […] For TβMCA in vivo, male C57BL/6N mice from 6 weeks of age were fed a HFD and treated with the antibiotics (0.1% of each compound of bacitracin, neomycin, and streptomycin combination) for 3 days. Vehicle (saline), TCA (400 mg/kg body weight, dissolved in saline) or a combination of TCA and TβMCA (400 mg/kg body weight of each compound, dissolved in saline) were orally administered to the mice and followed by a second dose 12 h later. The mice were killed 2 h later for tissue collection. For the Gly-MCA study, Gly-MCA was custom synthesized. Bacon-flavored dough pills were produced as described (Walker et al., Toxicol. Appl. Pharmacol. 260:65-69, 2012) for oral administration of Gly-MCA (0.25 mg Gly-MCA/pill, dose of 10 mg/kg). Mice were trained to eat the dough pills prior to the study. For the prevention of obesity, insulin resistance and NAFLD, male wild-type (WT) C57BL/6N mice, 6- to 8-weeks-old, were fed a high-fat diet (Bio-Serv, Frenchtown, N.J.; 60 kcal % fat) from the age of 6 weeks and were orally administered with vehicle (control pills) or Gly-MCA (0.25 mg/pill/day, dose 10 mg/kg). C57BL/6N mice fed a high-fat diet for 12 weeks were administered (0.25 mg Gly-MCA/pill, dose of 5 mg/kg). Leptin-deficient db/db mice, 6- to 8-weeks-old, fed a chow diet, were administered Gly-MCA (0.25 mg/pill/day, 10 mg/kg). Mice were housed individually in their home cages. Cumulative food intake and TEEbal were measured for 1 week in vehicle and Gly-MCA-treated mice from 6 to 7 weeks of HFD. TEEbal was measured as previously described (Ravussin et al., Int. J. Obesity 37:399-403, 2013).
The mucosa of intestine was gently scraped and liver was taken and both were flash frozen in liquid nitrogen and stored at −80° C. until RNA was prepared. RNA was extracted from frozen intestine and liver using TRIzol reagent (Invitrogen, Carlsbad, Calif.). cDNA was synthesized from 1 μg total RNA using Superscript II reverse transcriptase (Invitrogen, Carlsbad, Calif.). qPCR primers were designed with qPrimerDepot. Measured mRNA levels were normalized to those of 18S ribosomal RNA and expressed as fold change relative to those of control group.
Lipidomics analysis: For serum lipidomics analysis 25 μl serum were extracted by 4-fold cold chloroform:methanol (2:1) solution containing 2 μM LPC (17:0), PC (17:0), SM (17:0) and CER (17:0) (Avanti Polar Lipids, Alabaster, Ala.) as internal standards. The samples were vortexed for 30 s and then allowed to stand for 5 min at room temperature. The mixture was centrifuged at 13,000 rpm for 5 min and then the lower organic phase was collected and evaporated at room temperature under vacuum. The residue was dissolved in chloroform:methanol (1:1), followed by diluting with isopropanol:acetonitrile:H2O (2:1:1) containing 2 μM PC (17:0) prior to UPLC-MS analysis. For tissue lipidomics analysis, about 50 mg of accurately weighted tissues were homogenized with 700 μL methanol: H2O (4:3) solution and then extracted using 800 μL chloroform containing 2 μM LPC (17:0), SM (17:0) and CER (17:0) as internal standards. The homogenate was incubated at 37° C. for 20 min followed by centrifuged for 20 min at 13,000 rpm. The lower organic phase was transferred to a new tube and dried under vacuum. The residue was suspended with 100 chloroform:methanol (1:1) solution and then diluted with isopropanol:acetonitrile:H2O (2:1:1) solution containing 2 μM PC (17:0) before injection. […]

db/db mice = assay: Gly-MCA in leptin receptor-deficient (db/db) mice; assay type: in vivo, mouse
From the text: as §1

HFD-induced obese mice = assay: Gly-MCA in C57BL/6N mice made obese by 12 weeks of high-fat diet; assay type: in vivo, mouse; conditions: 5 mg/kg
From the text: as §1

**Q.** Which “stability: hydrolysis to β-MCA on incubation with fecal extract” value [1] does the source give for C[C@H](CCC(=O)NCC(=O)O)[C@H]1CC[C@H]2[C@@H]3[C@@H](O)[C@@H](O)[C@@H]4C[C@H](O)CC[C@]4(C)[C@H]3CC[C@]12C [Gly-MCA, glycine-β-muricholic acid] here?
**A.** Its value is “stable in the intestine”.

**Q.** What about the “Gly-MCA detected in mouse ileum (stability in intestine)” value [2] of the same molecule?
**A.** The value was “stable in the intestine”.

**Q.** What about the “liver toxicity (serum ALT and AST levels)” value [3] of the same molecule?
**A.** The value was “do not develop significant liver toxicity; also recorded: did not exhibit significant liver toxicity”.

**Q.** And the “Gly-MCA levels in the feces” value ([4]; Gly-MCA treatment for 9 weeks)?
**A.** Its value is “markedly increased”.

**Q.** And the “Gly-MCA levels in the ileum” value ([4]; Gly-MCA treatment for 9 weeks)?
**A.** The value was “markedly increased”.

**Q.** What about the liver weights ([4]; HFD) of the same molecule?
**A.** Its liver weights is “decreased”.

**Q.** And the “hepatic lipid droplets (liver histology)” value ([4]; HFD 7 weeks)?
**A.** Its value is “marked reduction in hepatic lipid droplets”.

**Q.** And the “Shp and Fgf15 mRNAs in the ileum” value ([4]; HFD 9 weeks)?
**A.** Its value is “decreased”.

**Q.** What about the “expression of Shp mRNA in the liver” value ([4]; HFD 9 weeks) of the same molecule?
**A.** The value was “similar”.

**Q.** And the “intestinal mRNAs of ceramide de novo synthesis-related genes (Sptic3, Cers4, Degs1, Smpd3)” value ([4]; HFD 9 weeks)?
**A.** Its value is “significantly lower”.

**Q.** And the “serum ALT levels” value ([4]; HFD 9 weeks)?
**A.** Its value is “significantly decreased”.

**Q.** What about the “serum AST levels” value ([4]; HFD 9 weeks) of the same molecule?
**A.** Its value is “significantly decreased”.

**Q.** What about the serum triglyceride levels ([4]; HFD 9 weeks) of the same molecule?
**A.** Its serum triglyceride levels is “remained similar”.

**Q.** And the body weight gain ([4]; HFD, 10 mg/kg oral, after one week of treatment)?
**A.** Its body weight gain is “reduced body weight gain”.

**Q.** What about the “ITT: insulin sensitivity” value ([4]; HFD, 6 to 7 weeks) of the same molecule?
**A.** The value was “significantly increased”.

**Q.** And the “energy expenditure (TEEbal)” value ([4]; HFD, 6 to 7 weeks)?
**A.** Its value is “increased the energy expenditure significantly”.

**Q.** What about the food intake ([4]; HFD, 6 to 7 weeks) of the same molecule?
**A.** The food intake was “comparable”.

**Q.** And the “absolute fat mass (NMR)” value ([4]; HFD, after 7 weeks of treatment)?
**A.** The value was “significantly decreased”.

**Q.** And the “hepatic triglyceride contents decreased to” value ([4]; HFD, relative to vehicle)?
**A.** Its value is “approximately 51%”.

**Q.** What about the “GTT: blood glucose levels after glucose loading” value ([4]; after 6 weeks of HFD) of the same molecule?
**A.** The value was “significantly reduced blood glucose levels”.

**Q.** What about the “absolute fat mass (NMR)” value (db/db mice; 6 weeks) of the same molecule?
**A.** Its value is “significantly decreased”.

**Q.** And the “hepatic lipid droplets (liver histology)” value (db/db mice; 6 weeks)?
**A.** Its value is “significant decrease in hepatic lipid droplets”.

**Q.** What about the “liver TG contents” value (db/db mice; 6 weeks) of the same molecule?
**A.** Its value is “dramatically improved”.

**Q.** What about the liver weights (db/db mice; 6 weeks) of the same molecule?
**A.** The liver weights was “decreased”.

**Q.** What about the “serum ALT levels” value (db/db mice; 6 weeks) of the same molecule?
**A.** The value was “significantly decreased”.

**Q.** What about the “serum AST levels” value (db/db mice; 6 weeks) of the same molecule?
**A.** Its value is “significantly decreased”.

**Q.** And the serum triglyceride levels (db/db mice; 6 weeks)?
**A.** Its serum triglyceride levels is “remained similar”.

**Q.** What about the body weight (db/db mice; Gly-MCA 6 weeks, 10 mg/kg) of the same molecule?
**A.** Its body weight is “reduced body weight”.

**Q.** What about the body weight gain (HFD-induced obese mice; HFD-induced obese mice, from two weeks of treatment) of the same molecule?
**A.** Its body weight gain is “reduced body weight gain”.

**Q.** And the “absolute fat mass (NMR)” value (HFD-induced obese mice; obese mice, 6 weeks)?
**A.** The value was “significantly decreased”.

**Q.** What about the “hepatic lipid droplets (liver histology)” value (HFD-induced obese mice; obese mice, 6 weeks) of the same molecule?
**A.** Its value is “marked amelioration in hepatic lipid droplets”.

**Q.** And the liver weights (HFD-induced obese mice; obese mice, 6 weeks)?
**A.** The liver weights was “reduced”.
